In BindingDB's records for doi:10.1021/jm031106i (Linkoping University, 2004):

Key:
Assay in all cases: Enzyme Inhibition Measurements
Cathepsin D = Cathepsin D (Homo sapiens, UniProt P07339)
Description: (§1) Enzyme activities were assayed by monitoring the hydrolysis of substrate in the presence or absence of inhibitor compounds. The hydrolysis was recorded as the increase in fluorescence intensity over a 10 min time period. IC50 values were obtained by assuming competitive inhibition and fitting the dose response data to the equation (Vi/V0) =1/ (1 + [I]/IC50)). The Ki was calculated by using Ki = IC50/ (1 + [S]/Km), and a Km value determined according to Michaelis-Menten.

Plasmepsin I = Plasmepsin I (Plasmodium falciparum, UniProt P39898)
Description: as §1

Plasmepsin II = Plasmepsin II (Plasmodium falciparum (isolate HB3), UniProt P46925); details: pH 4.5; 22 °C
Description: as §1

Chain of Plasmepsin I (P39898 whole entry): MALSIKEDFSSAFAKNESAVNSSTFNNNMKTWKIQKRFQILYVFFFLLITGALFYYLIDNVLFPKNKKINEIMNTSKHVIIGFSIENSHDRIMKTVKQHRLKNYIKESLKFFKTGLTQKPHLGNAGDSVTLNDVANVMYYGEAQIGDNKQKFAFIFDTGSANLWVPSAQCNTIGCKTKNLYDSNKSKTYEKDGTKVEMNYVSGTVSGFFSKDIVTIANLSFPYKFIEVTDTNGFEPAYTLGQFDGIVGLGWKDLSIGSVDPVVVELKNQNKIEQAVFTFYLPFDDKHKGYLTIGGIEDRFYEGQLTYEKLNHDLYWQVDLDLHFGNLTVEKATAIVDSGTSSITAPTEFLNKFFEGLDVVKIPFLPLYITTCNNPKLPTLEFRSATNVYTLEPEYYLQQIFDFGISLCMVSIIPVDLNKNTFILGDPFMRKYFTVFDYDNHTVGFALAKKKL
Chain of Cathepsin D (P07339 65-162 limits assumed): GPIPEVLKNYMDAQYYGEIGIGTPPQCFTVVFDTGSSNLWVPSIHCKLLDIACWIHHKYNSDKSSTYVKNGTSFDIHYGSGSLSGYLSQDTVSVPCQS
Chain of Cathepsin D (P07339 169-412 limits assumed): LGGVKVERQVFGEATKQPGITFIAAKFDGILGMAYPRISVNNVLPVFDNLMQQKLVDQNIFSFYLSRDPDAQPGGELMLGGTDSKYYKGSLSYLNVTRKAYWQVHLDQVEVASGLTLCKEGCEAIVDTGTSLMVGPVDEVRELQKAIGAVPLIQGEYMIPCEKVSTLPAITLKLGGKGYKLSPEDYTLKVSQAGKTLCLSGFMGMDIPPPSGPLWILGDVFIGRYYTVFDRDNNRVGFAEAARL
Chain of Plasmepsin II (P46925 whole entry): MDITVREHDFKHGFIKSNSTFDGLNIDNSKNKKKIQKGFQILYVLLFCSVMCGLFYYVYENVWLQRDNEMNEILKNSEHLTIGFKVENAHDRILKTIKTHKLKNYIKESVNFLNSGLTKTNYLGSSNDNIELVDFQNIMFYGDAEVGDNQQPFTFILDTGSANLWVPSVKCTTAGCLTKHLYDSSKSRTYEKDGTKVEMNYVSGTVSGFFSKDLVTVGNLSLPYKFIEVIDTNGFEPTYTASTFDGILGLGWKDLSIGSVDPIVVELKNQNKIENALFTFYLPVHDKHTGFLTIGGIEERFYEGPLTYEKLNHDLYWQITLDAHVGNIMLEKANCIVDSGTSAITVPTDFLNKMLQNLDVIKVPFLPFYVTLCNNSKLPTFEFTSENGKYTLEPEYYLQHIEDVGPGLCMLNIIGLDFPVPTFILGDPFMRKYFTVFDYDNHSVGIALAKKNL

Structure (SMILES): CC(C)[C@H](NC(=O)c1ccccn1)C(=O)N[C@@H](COCc1ccc(Br)cc1)[C@@H](O)CC(=O)NCC1CCCCC1 [(3S,4S)-5-[(4-bromophenyl)methoxy]-N-(cyclohexylmethyl)-3-hydroxy-4-[(2S)-3-methyl-2-(pyridin-2-ylformamido)butanamido]pentanamide]
- Ki (Cathepsin D): 586 nM
- Ki (Plasmepsin I): 3.9 nM
- Ki (Plasmepsin II): 41 nM
